pIC50: −log10 of the molar value.
Tested on: 138582-337-R-J1-PDC spheroids with HUVEC/MSC, viability
Experiment: Anticancer human tumor 138582-337-R-J1-PDC patient-derived Merkel cell tumor cell line growth inhibition [IpAb]
Details: for pIC50: curve of first compound; for viability, T/C: stronger effect = lower value
Source text: Combinatorial screen of targeted agents with ipatasertib and abemaciclib in multi-cell type tumor spheroids
A high-throughput screen of multi-cell type tumor spheroids was designed to identify active combinations of targeted small molecules and ipatasertib or abemaciclib. Complex spheroids include a stromal component modeled by human endothelial cells (HUVEC) and fibroblasts modeled by human mesenchymal stem cells (MSCs). The concentration ranges selected for each drug and investigational agent were based upon clinically achievable concentrations if the clinical Cmax of the agent was known.
Compounds. The drugs and investigational agents: ipatasertib (NSC767898), abemaciclib(NSC768073), selumetinib (NSC741078), trametinib (758246), adavosertib (NSC754352), everolimus (NSC733504), sapanisertib (NSC764658), vemurafenib (NSC761431), venetoclax (NSC766270), copanlisib (NSC809693), apelisib (NSC765974), palbociblib (NSC758247), vemurafenib (NSC761431), dabrafenib (NSC764134), ravoxertinib (NSC781343), BMS-387032 (NSC767048), sotorasib (NSC818433), talazoparib (NSC767125) and afursertib (NSC778305), were obtained from the National Cancer Institute (NCI) Developmental Therapeutics Program Chemical Repository. The FDA-approved anticancer drug set is available from the NCI Developmental Therapeutics Program. […] The stock solutions were prepared in dimethyl sulfoxide (DMSO, Sigma-Aldrich, St. Louis, MO, cat. D2650) at 800-fold the tested concentration and stored at -70 degrees C prior to their use. All drugs and investigational agents were tested over a range starting from a high concentration at or near the clinical Cmax and decreasing in half-log increments. If the clinical Cmax for an agent had not been determined, the highest concentration tested was 10 microM.
NCI60 Cell Culture. NCI60 cell lines were obtained from the NCI Developmental Therapeutics Program Tumor Repository. For each lot of cells, the Repository performed Applied Biosystems AmpFLSTR Identifiler testing with PCR amplification to confirm consistency with the published Identifier STR profile for each cell line. Cells were kept in continuous culture for no more than 20 passages. The optimal seeding densities for each of the cell lines at each time point assessed were determined prior to performing the concentration response studies. Briefly, the NCI60 human tumor lines were grown as monolayers in RPMI 1640 medium supplemented with 10% FBS and 2 mmol/L L-glutamine.
An additional 9 lines were from the NCI60 cell line panel including MDA-MB-231 breast carcinoma, MDA-MB-468 breast carcinoma, MCF7 breast carcinoma, Hs578T breast carcinoma, MALME-3M melanoma, SK-MEL-2 melanoma, SK-OV-3 ovarian carcinoma, DU-145 prostate carcinoma, PC-3 prostate carcinoma, all cell lines along with major genetic alterations are listed on Table 2. Pooled donor human umbilical vein endothelial cells (HUVEC, Lonza, cat. CC-2519) and human mesenchymal stem cells (hMSC, Lonza, cat. PT-2501) were purchased from Lonza (Walkersville, MD).
PDMR cell lines were grown in complete medium (DC medium): Dulbecco's modified Eagle's medium (DMEM)/F12 supplemented with 5% fetal bovine serum (FBS), 2 mM L-glutamine, 100 U/mL penicillin and 100 µg/ml streptomycin, 0.4 µg/ml hydrocortisone, 10 ng/ml epidermal growth factor (EGF) recombinant human protein, 24 µg/mL adenine, and 0.1 mg/mL primocin. During culture from frozen stock vials, PDMR cells were cultured in the same medium containing 10 µM Y-27632 (see Table 3). The PDCs were cultured in complete DMEM/F12 media without 10 microM Y-27632 dihydrochloride for at least two passages prior to the screen. The pooled donor HUVEC and hMSC were cultured in endothelial cell growth medium 2 (PromoCell, Heidelberg, Germany, cat. C-22011) and mesenchymal stem cell growth medium 2 (PromoCell, cat. C-28009), respectively. For all experiments, HUVEC and hMSC were used at passages </=5.
[…]

[1] = second compound 0.1 µM, first compound 0.0316 µM
[2] = second compound 0.1 µM, first compound 0.1 µM
[3] = second compound 0.1 µM, first compound 0.316 µM
[4] = second compound 0.1 µM, first compound 1 µM
[5] = second compound 0.1 µM, first compound 3.16 µM
[6] = second compound 0.1 µM, first compound 10 µM
[7] = second compound 0.316 µM, first compound 0.0316 µM
[8] = second compound 0.316 µM, first compound 0.1 µM
[9] = second compound 0.316 µM, first compound 0.316 µM
[10] = second compound 0.316 µM, first compound 1 µM
[11] = second compound 0.316 µM, first compound 3.16 µM
[12] = second compound 0.316 µM, first compound 10 µM
[13] = second compound 1 µM, first compound 0.0316 µM
[14] = second compound 1 µM, first compound 0.1 µM
[15] = second compound 1 µM, first compound 0.316 µM
[16] = second compound 1 µM, first compound 1 µM
[17] = second compound 1 µM, first compound 3.16 µM
[18] = second compound 1 µM, first compound 10 µM
[19] = second compound 3.16 µM, first compound 0.0316 µM
[20] = second compound 3.16 µM, first compound 0.1 µM
[21] = second compound 3.16 µM, first compound 0.316 µM
[22] = second compound 3.16 µM, first compound 1 µM
[23] = second compound 3.16 µM, first compound 3.16 µM
[24] = second compound 3.16 µM, first compound 10 µM
[25] = second compound 10 µM, first compound 0.0316 µM
[26] = second compound 10 µM, first compound 0.1 µM
[27] = second compound 10 µM, first compound 0.316 µM
[28] = second compound 10 µM, first compound 1 µM
[29] = second compound 10 µM, first compound 3.16 µM
[30] = second compound 10 µM, first compound 10 µM
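Further: spheroids exposed to compounds for seven days.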
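Wherever viability, T/C is given: 100% = DMSO vehicle control viability.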

Compound	pIC50 (second compound 0.1 µM)	pIC50 (second compound 0.316 µM)	pIC50 (second compound 1 µM)	pIC50 (second compound 3.16 µM)	pIC50 (second compound 10 µM)	viability, T/C [1] [%]	viability, T/C [2] [%]	viability, T/C [3] [%]	viability, T/C [4] [%]	viability, T/C [5] [%]	viability, T/C [6] [%]	viability, T/C [7] [%]	viability, T/C [8] [%]	viability, T/C [9] [%]	viability, T/C [13] [%]	viability, T/C [14] [%]	viability, T/C [19] [%]	viability, T/C [20] [%]	viability, T/C [25] [%]	viability, T/C [26] [%]	other results
C=CCn1c(=O)c2cnc(Nc3ccc(N4CCN(C)CC4)cc3)nc2n1-c1cccc(C(C)(C)O)n1 + CC(C)NCC(C(=O)N1CCN(c2ncnc3c2C(C)CC3O)CC1)c1ccc(Cl)cc1	< 5.00	< 5.00	< 5.00	> 7.50	> 7.50	96.8	95.6	78	99.6	99.1	134	85.5	73.6	74.7	66.7	73.5	58.1	53.6	54.6	41.5	viability, T/C [10]: 71.4%; viability, T/C [11]: 94.2%; viability, T/C [12]: 117%; viability, T/C [15]: 54.5%; viability, T/C [16]: 63.6%; viability, T/C [17]: 83.4%; viability, T/C [18]: 89.1%; viability, T/C [21]: 38.9%; viability, T/C [22]: 46.6%; viability, T/C [23]: 74.8%; viability, T/C [24]: 73.8%; viability, T/C [27]: 33.9%; viability, T/C [28]: 42%; viability, T/C [29]: 60.1%; viability, T/C [30]: 55.5%
CC(C)n1nc(-c2ccc3oc(N)nc3c2)c2c(N)ncnc21 + CC(C)NCC(C(=O)N1CCN(c2ncnc3c2C(C)CC3O)CC1)c1ccc(Cl)cc1	7.65	8.12	8.71	9.44	> 9.50	43.8	31.9					37	26.8		27.5	22	19.6	17.5	14.4	12.3	viability, T/C (second compound 0.1 µM, first compound 0.000316 µM): 96.3%; viability, T/C (second compound 0.1 µM, first compound 0.001 µM): 89.2%; viability, T/C (second compound 0.1 µM, first compound 0.00316 µM): 70%; viability, T/C (second compound 0.1 µM, first compound 0.01 µM): 64.1%; viability, T/C (second compound 0.316 µM, first compound 0.000316 µM): 67.8%; viability, T/C (second compound 0.316 µM, first compound 0.001 µM): 66%; viability, T/C (second compound 0.316 µM, first compound 0.00316 µM): 61.8%; viability, T/C (second compound 0.316 µM, first compound 0.01 µM): 44.1%; viability, T/C (second compound 1 µM, first compound 0.000316 µM): 63.1%; viability, T/C (second compound 1 µM, first compound 0.001 µM): 54.1%; viability, T/C (second compound 1 µM, first compound 0.00316 µM): 47.5%; viability, T/C (second compound 1 µM, first compound 0.01 µM): 36.2%; viability, T/C (second compound 3.16 µM, first compound 0.000316 µM): 50%; viability, T/C (second compound 3.16 µM, first compound 0.001 µM): 47.3%; viability, T/C (second compound 3.16 µM, first compound 0.00316 µM): 36%; viability, T/C (second compound 3.16 µM, first compound 0.01 µM): 27.3%; viability, T/C (second compound 10 µM, first compound 0.000316 µM): 40.5%; viability, T/C (second compound 10 µM, first compound 0.001 µM): 35.9%; viability, T/C (second compound 10 µM, first compound 0.00316 µM): 31.6%; viability, T/C (second compound 10 µM, first compound 0.01 µM): 21.8%
CC1(C)CCC(CN2CCN(c3ccc(C(=O)NS(=O)(=O)c4ccc(NCC5CCOCC5)c([N+](=O)[O-])c4)c(Oc4cnc5[nH]ccc5c4)c3)CC2)=C(c2ccc(Cl)cc2)C1 + CC(C)NCC(C(=O)N1CCN(c2ncnc3c2C(C)CC3O)CC1)c1ccc(Cl)cc1	< 5.00	< 5.00	< 5.00	> 7.50	> 7.50	83.6	73.6	78.5	75.1	74.5	76.6	73	69.8	67	65.2	63.5	51.2	50.7	43.7	41.7	viability, T/C [10]: 71.4%; viability, T/C [11]: 63.3%; viability, T/C [12]: 71.2%; viability, T/C [15]: 63.8%; viability, T/C [16]: 60.9%; viability, T/C [17]: 60.2%; viability, T/C [18]: 63.8%; viability, T/C [21]: 46.9%; viability, T/C [22]: 50.3%; viability, T/C [23]: 49.6%; viability, T/C [24]: 32.3%; viability, T/C [27]: 41.3%; viability, T/C [28]: 38.3%; viability, T/C [29]: 47.1%; viability, T/C [30]: 11%
CCCS(=O)(=O)Nc1ccc(F)c(C(=O)c2c[nH]c3ncc(-c4ccc(Cl)cc4)cc23)c1F + CC(C)NCC(C(=O)N1CCN(c2ncnc3c2C(C)CC3O)CC1)c1ccc(Cl)cc1	< 5.00	< 5.00	5.38	> 7.50	> 7.50	87.4	86.3	88.9	89.7	102	68.2	73.2	77.2	66	67.3	61.2	47.2	48.5	41.8	47.8	viability, T/C [10]: 68%; viability, T/C [11]: 71.7%; viability, T/C [12]: 51.6%; viability, T/C [15]: 61.3%; viability, T/C [16]: 54.5%; viability, T/C [17]: 58%; viability, T/C [18]: 36%; viability, T/C [21]: 47.1%; viability, T/C [22]: 45%; viability, T/C [23]: 42.5%; viability, T/C [24]: 21.3%; viability, T/C [27]: 43.7%; viability, T/C [28]: 35.7%; viability, T/C [29]: 31.1%; viability, T/C [30]: 1.88%

Reference: PubChem BioAssay AID2060343 (Molecular Pharmacology Branch, DTP, NCI, 2025)
